Experimental data: patent US12678419B2, “Compounds” (Sitryx Therapeutics Limited, priority 2020, dated 2026)
Values joined by “and” are separate entries in the source; they are usually repeats but may differ in a detail not shown here. Equal values may be shown once. Where a name gives a salt, the structure may show the parent alone.

Assays:
[1] = system: IL-6 cytokine output from THP-1s; assay: THP-1 AlphaLISA IL-6 cytokine assay; assay type: cell-based; conditions: LPS then nigericin, Table 1
Procedure: (§1) The cytokine inhibition profiles of compounds of formula (I) were determined in a differentiated THP-1 cell assay. All assays were performed in RPMI-1640 growth medium (Gibco), supplemented with 10% fetal bovine serum (FBS; Gibco), 1% penicillin-streptomycin and 1% sodium pyruvate unless specified otherwise. The IL-1β and IL-6 cytokine inhibition assays were each run in a background of differentiated THP-1 cells as described below. All reagents described were from Sigma-Aldrich unless specified otherwise. Compounds were prepared as 10 mM DMSO stocks.
(§2) THP-1 cells were expanded as a suspension up to 80% confluence in appropriate growth medium. Cells were harvested, suspended, and treated with an appropriate concentration of phorbol 12-myristate 13-acetate (PMA) over a 72 hr period (37° C./5% CO2).
(§3) Following 72 hrs of THP-1 cell incubation, cellular medium was removed and replaced with fresh growth media containing 1% of FBS. Working concentrations of compounds were prepared separately in 10% FBS treated growth medium and pre-incubated with the cells for 30 minutes (37° C./5% CO2). Following the 30 minute compound pre-incubation, THP-1s were treated with an appropriate concentration of LPS and the THP-1s were subsequently incubated for a 24 hr period (37° C./5% CO2). An appropriate final concentration of Nigericin was then dispensed into the THP-1 plates and incubated for 1 hour (37° C./5% CO2) before THP-1 supernatants were harvested and collected in separate polypropylene 96-well holding plates.
(§4) Reagents from each of the IL-1β and IL-6 commercial kits (Perkin Elmer) were prepared and run according to the manufacturer's instructions. Subsequently, fluorescence signal detection in a microplate reader was measured (EnVision® Multilabel Reader, Perkin Elmer).
(§5) Percentage inhibition was calculated per cytokine by normalising the sample data to the high and low controls used within each plate (+/− LPS respectively). Percentage inhibition was then plotted against compound concentration and the 50% inhibitory concentration (IC50) was determined from the resultant concentration-response curve.

[2] = system: IL-1β cytokine output from THP-1s; assay: THP-1 AlphaLISA IL-1β cytokine assay; assay type: cell-based
Procedure: as §1, §2, §3, §4, §5

[3] = Hepatocyte stability assay, human; assay type: in vitro ADME; conditions: human, cryopreserved hepatocytes, 10 μM compound, read-out: T½
Excerpt: (§6) Defrosted cryo-preserved hepatocytes (viability >70%) were used to determine the metabolic stability of a compound via calculation of intrinsic clearance (Clint; a measure of the removal of a compound from the liver in the absence of blood flow and cell binding). Clearance data are particularly important for in vitro work as they can be used in combination with in vivo data to predict the half-life and oral bioavailability of a drug.
(§7) The metabolic stability in hepatocytes assay involves a time-dependent reaction using both positive and negative controls. The cells were pre-incubated at 37° C. and spiked with test compound (and positive control); samples were taken at pre-determined time intervals were analysed to monitor the change in concentration of the initial drug compound over 60 minutes. A buffer incubation reaction (with no hepatocytes present) acted as a negative control and two cocktail solutions, containing compounds with known high and low clearance values (verapamil/7-hydroxycoumarin and propranolol/diltiazem), acted as positive controls. • 1. The assay was run with a cell concentration of 0.5×10^6 cells/mL in Leibovitz buffer. • 2. All compounds and controls were run in duplicate. • 3. Compound concentration was 10 μM. • 4. All compounds and controls were incubated with both cells and buffer to show turnover was due to hepatic metabolism. • 5. All wells on the incubation plate had 326.7 μL of either cells or buffer added. • 6. Prior to assay, cell and buffer-only incubation plates were preincubated for 10 mins at 37° C. • 7. The assay was initiated by adding compounds, 3.3 μL of 1 mM in 10% DMSO-90% Buffer; final DMSO concentration was 0.1%. • 8. Samples were taken at regular timepoints (0, 5, 10, 20, 40, 60 min) until 60 mins. • 9. Sample volume was 40 μL and was added to 160 μL of crash solvent (acetonitrile with internal standard) and stored on ice. • 10. At the end of the assay, the crash plates were centrifuged at 3500 rpm for 20 mins at 4° C. • 11. 80 μL of clear supernatant was removed and mixed with 80 μL of deionised water before being analysed by LC-MS/MS.
(§8) Raw LC-MS/MS data was exported to, and analysed in, Microsoft Excel for determination of intrinsic clearance. The percentage remaining of a compound was monitored using the peak area of the initial concentration as 100%. Intrinsic clearance and half-life values were calculated using a graph of the natural log of percentage remaining versus the time of reaction in minutes. Half-life (min) and intrinsic clearance (Clint in μL min^−1 10^−6 cells) values were calculated using the gradient of the graph (the elimination rate constant, k) and Equations 1 and 2.

[4] = system: human hepatocytes; assay: Hepatocyte stability assay, human; assay type: in vitro ADME; conditions: 10 μM compound
Excerpt: as §6, §7, §8

[5] = system: NRF2 (nuclear factor erythroid 2-related factor 2); assay: NRF2 +/-GSH activation assay (DiscoverX PathHunter NRF2 translocation kit, U2OS cells); assay type: cell-based; conditions: for Emax (%) +GSH / Emax (%) −GSH: normalised to dimethyl fumarate high control
[6] = system: mouse hepatocytes; assay: Hepatocyte stability assay, mouse; assay type: in vitro ADME; conditions: 10 μM compound
Excerpt: as §6, §7, §8

[7] = Homo sapiens, THP-1, differentiated THP-1 cells
[8] = Homo sapiens, THP-1, differentiated THP-1 cells, LPS then nigericin, Table 1
[9] = differentiated THP-1 cells, LPS then nigericin, Table 1

| IC50 [1, 7] | IC50 [2, 8] | IC50 ([2]; Homo sapiens, THP-1, differentiated THP-1 cells, Table 2, compounds of formula (XVI)) | half-life at 10 μM [3] | Clint (μL min^−1 10^−6 cells) [4] | EC50 ([5]; +GSH) | EC50 ([5]; −GSH) | Clint (μL min^−1 10^−6 cells) [6] | T½ [6] | T½ [4] | IC50 [2, 9] | IC50 ([1]; differentiated THP-1 cells) | SMILES | Emax (%) +GSH ([5]; +GSH) | Emax (%) −GSH ([5]; −GSH) |
| --- | --- | --- | --- | --- | --- | --- | --- | --- | --- | --- | --- | --- | --- | --- |
| – | 12.3 µM | – | 2.33 h | 11 μL min^−1 10^−6 cells | 19.5 µM | 10.8 µM | 431 μL min^−1 10^−6 cells | 0.05 h | – | – | – | C=C(CC(=O)OC1CCc2cc(Cl)c(Cl)cc21)C(=O)OCC(=O)O (single isomer, unassigned; enantiomer 1) [Example 5, 2-((4-((5,6-dichloro-2,3-dihydro-1H-inden-1-yl)oxy)-2-methylene-4-oxobutanoyl)oxy)acetic acid (Enantiomer 1)] | 246% | 280% |
| 3.9 µM | – | – | – | 11 μL min^−1 10^−6 cells | 31.8 µM | 12.9 µM | >460 μL min^−1 10^−6 cells | <0.05 h | 2.08 h | 1.4 µM | – | C=C(CC(=O)OC1CCc2c(Cl)cc(F)cc21)C(=O)OCC(=O)O (single isomer, unassigned; enantiomer 2) [Example 20, 2-((4-((4-chloro-6-fluoro-2,3-dihydro-1H-inden-1-yl)oxy)-2-methylene-4-oxobutanoyl)oxy)acetic acid (Enantiomer 2)] | 155% | 234% |
| – | – | – | – | 16 μL min^−1 10^−6 cells | 15.8 µM | 9.8 µM | >460 μL min^−1 10^−6 cells | <0.05 h | 1.55 h | 5.6 µM | 3.6 µM | C=C(CC(=O)OC1CCc2c(Cl)cc(Cl)cc21)C(=O)OCC(=O)O (single isomer, unassigned; enantiomer 2) [Example 3, 2-((4-((4,6-dichloro-2,3-dihydro-1H-inden-1-yl)oxy)-2-methylene-4-oxobutanoyl)oxy)acetic acid (Enantiomer 2)] | 211% | 229% |
| – | – | – | – | 19 μL min^−1 10^−6 cells | 28.7 µM | 21.6 µM | 393 μL min^−1 10^−6 cells | 0.067 h | 1.35 h | 7.9 µM | 20.6 µM | C=C(CC(=O)OC1CCc2ccc(OC(F)(F)F)cc21)C(=O)OCC(=O)O (single isomer, unassigned; enantiomer 2) [Example 30, 2-((2-methylene-4-oxo-4-((6-(trifluoromethoxy)-2,3-dihydro-1H-inden-1-yl)oxy)butanoyl)oxy)acetic acid (Enantiomer 2)] | 182% | 225% |
| – | – | – | – | 8 μL min^−1 10^−6 cells | 17.4 µM | 8.3 µM | 69 μL min^−1 10^−6 cells | 0.317 h | 3.45 h | 9.9 µM | – | C=C(CC(=O)OC1CCc2cc(Cl)c(Cl)cc21)C(=O)OCC(=O)O (single isomer, unassigned; enantiomer 2) [Example 6, 2-((4-((5,6-dichloro-2,3-dihydro-1H-inden-1-yl)oxy)-2-methylene-4-oxobutanoyl)oxy)acetic acid (Enantiomer 2)] | 215% | 242% |

The remaining lines, values behind:

| SMILES | IC50 [1, 7] | IC50 [2, 8] | IC50 ([2]; Homo sapiens, THP-1, differentiated THP-1 cells, Table 2, compounds of formula (XVI)) | half-life at 10 μM [3] | Clint (μL min^−1 10^−6 cells) [4] | EC50 ([5]; +GSH) | EC50 ([5]; −GSH) | Clint (μL min^−1 10^−6 cells) [6] | T½ [6] | T½ [4] | IC50 [2, 9] | IC50 ([1]; differentiated THP-1 cells) | Emax (%) +GSH ([5]; +GSH) | Emax (%) −GSH ([5]; −GSH) |
| --- | --- | --- | --- | --- | --- | --- | --- | --- | --- | --- | --- | --- | --- | --- |
| C=C(CC(=O)OC)C(=O)OC [dimethyl itaconate, reference compound] | > 100 µM | > 100 µM | > 100 µM | – | – | – | – | – | – | – | – | – | – | – |
| C=C(CC(=O)OC1CCCc2c(Cl)cc(Cl)cc21)C(=O)OCC(=O)O (single isomer, unassigned; enantiomer 2) [Example 25, 2-((4-((5,7-dichloro-1,2,3,4-tetrahydronaphthalen-1-yl)oxy)-2-methylene-4-oxobutanoyl)oxy)acetic acid (Enantiomer 2)] | – | – | – | – | 29 μL min^−1 10^−6 cells | 10.6 µM | 6 µM | >460 μL min^−1 10^−6 cells | <0.05 h | 0.967 h | 4.8 µM | 6.2 µM | 147% | 205% |
| COC(=O)/C=C/C(=O)OC [dimethyl fumarate, reference compound] | 9.3 µM | 14.4 µM | – | – | – | > 100 µM | 6 µM | – | – | – | – | – | 19% | 100% |
| C=C(CC(=O)OC1CCc2c(Br)cc(F)cc21)C(=O)OCC(=O)O (single isomer, unassigned; enantiomer 1) [Example 15, 2-((4-((4-bromo-6-fluoro-2,3-dihydro-1H-inden-1-yl)oxy)-2-methylene-4-oxobutanoyl)oxy)acetic acid (Enantiomer 1)] | – | 2.4 µM | – | 2.75 h | 9 μL min^−1 10^−6 cells | – | – | 51 μL min^−1 10^−6 cells | 0.4 h | – | – | – | – | – |
| C=C(CC(=O)OC1CCc2cc(C(F)(F)F)ccc21)C(=O)OCC(=O)O (single isomer, unassigned; enantiomer 2) [Example 29, 2-((2-methylene-4-oxo-4-((5-(trifluoromethyl)-2,3-dihydro-1H-inden-1-yl)oxy)butanoyl)oxy)acetic acid (Enantiomer 2)] | – | – | – | – | 10 μL min^−1 10^−6 cells | 18.7 µM and 25.9 µM | 5.9 µM and 11.5 µM | 92 μL min^−1 10^−6 cells | 0.283 h | 2.53 h | 11.4 µM | 5.8 µM | 141% and 175% | 147% and 211% |
| C=C(CC(=O)OC1CCc2cc(Cl)cc(Cl)c21)C(=O)OCC(=O)O (single isomer, unassigned; enantiomer 1) [Example 8, 2-((4-((5,7-dichloro-2,3-dihydro-1H-inden-1-yl)oxy)-2-methylene-4-oxobutanoyl)oxy)acetic acid (Enantiomer 1)] | – | 10.6 µM | – | – | 15 μL min^−1 10^−6 cells | 16.4 µM | 4.8 µM | 316 μL min^−1 10^−6 cells | 0.067 h | 1.77 h | – | – | 264% | 268% |
| C=C(CC(=O)OC1CCc2c(Cl)cc(F)cc21)C(=O)OCC(=O)O (single isomer, unassigned; enantiomer 1) [Example 19, 2-((4-((4-chloro-6-fluoro-2,3-dihydro-1H-inden-1-yl)oxy)-2-methylene-4-oxobutanoyl)oxy)acetic acid (Enantiomer 1)] | – | 2.2 µM | – | – | 4 μL min^−1 10^−6 cells | 10.1 µM | 18.1 µM | 37 μL min^−1 10^−6 cells | 0.683 h | 5.58 h | – | – | 48% | 224% |
